Measured values reported in patent US20250215029A1 (Recludix Pharma, Inc., priority 2022, published 2025).
pIC50: −log10 of the molar value.

What was measured:
pY641-STAT6 in PBMC = target: T1, pY641-STAT6 in PBMC (Homo sapiens, UniProt P42226); assay: MSD-pSTAT-PBMC Assay (pSTAT6, IL-4 stimulated); type: cell-based; settings: PBMC, compound 3 hrs, then 1 ng/mL IL-4 for 10 min; Table 1114; read-out: pSTAT6
T1 construct: Cryopreserved Peripheral Blood Mononuclear Cells (PBMC) are from AllCells; host or cells: cryopreserved PBMC
T1 sequence (P42226 1-847): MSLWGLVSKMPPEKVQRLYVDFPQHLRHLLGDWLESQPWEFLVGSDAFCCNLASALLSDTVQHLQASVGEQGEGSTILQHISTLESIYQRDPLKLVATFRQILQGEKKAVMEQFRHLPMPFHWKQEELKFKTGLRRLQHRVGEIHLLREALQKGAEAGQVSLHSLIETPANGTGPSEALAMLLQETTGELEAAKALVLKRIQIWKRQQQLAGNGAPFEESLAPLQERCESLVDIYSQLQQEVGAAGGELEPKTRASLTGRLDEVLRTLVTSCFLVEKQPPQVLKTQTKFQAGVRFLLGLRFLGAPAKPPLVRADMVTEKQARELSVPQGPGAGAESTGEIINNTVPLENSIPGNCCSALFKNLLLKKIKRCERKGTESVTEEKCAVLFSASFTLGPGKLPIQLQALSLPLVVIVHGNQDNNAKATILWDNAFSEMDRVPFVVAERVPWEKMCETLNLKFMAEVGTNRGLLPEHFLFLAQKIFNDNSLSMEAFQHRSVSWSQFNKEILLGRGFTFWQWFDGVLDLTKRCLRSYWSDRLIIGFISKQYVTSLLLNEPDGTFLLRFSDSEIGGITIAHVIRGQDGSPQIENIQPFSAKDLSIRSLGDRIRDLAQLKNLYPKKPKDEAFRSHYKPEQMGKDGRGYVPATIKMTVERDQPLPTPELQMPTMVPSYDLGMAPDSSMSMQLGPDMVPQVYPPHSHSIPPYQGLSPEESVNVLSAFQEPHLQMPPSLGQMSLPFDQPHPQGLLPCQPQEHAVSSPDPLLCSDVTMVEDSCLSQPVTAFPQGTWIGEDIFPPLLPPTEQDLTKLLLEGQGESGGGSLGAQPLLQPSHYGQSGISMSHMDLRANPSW
Summary of the method: (§1)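 Cells are preincubated with compound for 3 hrs, then stimulated for 10 min, IL-4 at 1 ng/mL driving STAT6 phosphorylation and IL-6 at 10 ng/mL driving STAT3. Phospho-STAT in lysates is quantified by MSD immunoassay, and IC50 is fitted after subtracting unstimulated wells.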

pY705-STAT3 in PBMC = target: T2, pY705-STAT3 in PBMC (Homo sapiens, UniProt P40763); assay: MSD-pSTAT-PBMC Assay (pSTAT3, IL-6 stimulated); type: cell-based; settings: PBMC, compound 3 hrs, then 10 ng/mL IL-6 for 10 min; Table 1114; read-out: pSTAT3
T2 construct: Cryopreserved Peripheral Blood Mononuclear Cells (PBMC) are from AllCells; host or cells: cryopreserved PBMC
Summary of the method: as §1

T2 sequence (P40763 whole entry): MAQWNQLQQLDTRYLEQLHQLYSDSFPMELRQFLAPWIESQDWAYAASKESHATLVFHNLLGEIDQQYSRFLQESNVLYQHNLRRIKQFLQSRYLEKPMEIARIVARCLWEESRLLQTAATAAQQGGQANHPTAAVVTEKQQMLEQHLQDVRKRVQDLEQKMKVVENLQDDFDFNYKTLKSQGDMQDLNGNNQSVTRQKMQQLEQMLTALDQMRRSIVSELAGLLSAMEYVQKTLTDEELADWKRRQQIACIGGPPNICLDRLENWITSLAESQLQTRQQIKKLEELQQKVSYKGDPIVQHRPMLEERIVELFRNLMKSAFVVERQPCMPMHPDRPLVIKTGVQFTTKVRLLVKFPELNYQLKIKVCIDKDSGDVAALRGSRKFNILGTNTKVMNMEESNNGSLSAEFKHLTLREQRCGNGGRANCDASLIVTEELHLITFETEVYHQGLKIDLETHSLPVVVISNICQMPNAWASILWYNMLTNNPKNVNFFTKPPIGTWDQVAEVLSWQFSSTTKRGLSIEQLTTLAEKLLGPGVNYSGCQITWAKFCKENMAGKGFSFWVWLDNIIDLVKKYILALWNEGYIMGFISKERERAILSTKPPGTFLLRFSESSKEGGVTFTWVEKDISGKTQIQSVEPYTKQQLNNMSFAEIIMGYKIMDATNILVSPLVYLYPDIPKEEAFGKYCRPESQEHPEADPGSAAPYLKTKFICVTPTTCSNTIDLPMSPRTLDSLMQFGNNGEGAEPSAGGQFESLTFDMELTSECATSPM

- pIC50 (pY641-STAT6 in PBMC): 6.00 to 7.00
- pIC50 (pY705-STAT3 in PBMC): 5.52 to 6.00
Substance: S-(2-((((2- (((3S,6S,10aS)-3- ((3S,4R or 3R,4S)-3- cyano-4- phenylpyrrolidine-1- carbonyl)-5- oxodecahydro- pyrrolo[1,2-a] azocin-6- yl)carbamoyl) benzo[b]thiophen- 5-yl)difluoromethyl) (2-(pivaloylthio) ethoxy)phosphoryl) oxy)ethyl) butanethioate [Compound 165]
